The record followed here is ChEMBL document CHEMBL5442219.

Common to all, as to settings: Compound concentration 10 µM
Test [1] has as its target Muscarinic acetylcholine receptor M3 (Homo sapiens) (UniProt P20309).
Description: PDSP Primary Binding target: CHRM3 - Compounds are tested at 10 uM concentration, plate are incubated at room temperature in the dark for 90 minutes. Reaction are stopped by vacuum filtration onto 0.3% polyethyleneimine soaked filter mats using Filtermate harvester. Scintilation cocktail is then melted onto microwave-dried filters on a hot plate and the radio activity is counted in Microbia counter.
The target in test [2] is Histamine H2 receptor (Homo sapiens) (UniProt P25021).
Description: PDSP Primary Binding target: HRH2 - Compounds are tested at 10 uM concentration, plate are incubated at room temperature in the dark for 90 minutes. Reaction are stopped by vacuum filtration onto 0.3% polyethyleneimine soaked filter mats using Filtermate harvester. Scintilation cocktail is then melted onto microwave-dried filters on a hot plate and the radio activity is counted in Microbia counter.
Test [3] concerns the target Sigma non-opioid intracellular receptor 1 (Homo sapiens) (UniProt Q99720).
Description: PDSP Primary Binding target: SIGMAR1 - Compounds are tested at 10 uM concentration, plate are incubated at room temperature in the dark for 90 minutes. Reaction are stopped by vacuum filtration onto 0.3% polyethyleneimine soaked filter mats using Filtermate harvester. Scintilation cocktail is then melted onto microwave-dried filters on a hot plate and the radio activity is counted in Microbia counter.
The target of test [4] is D(1B) dopamine receptor (Homo sapiens) (UniProt P21918).
Description: PDSP Primary Binding target: DRD5 - Compounds are tested at 10 uM concentration, plate are incubated at room temperature in the dark for 90 minutes. Reaction are stopped by vacuum filtration onto 0.3% polyethyleneimine soaked filter mats using Filtermate harvester. Scintilation cocktail is then melted onto microwave-dried filters on a hot plate and the radio activity is counted in Microbia counter.
Test [5] has as its target D(1A) dopamine receptor (Homo sapiens) (UniProt P21728).
Description: PDSP Primary Binding target: DRD1 - Compounds are tested at 10 uM concentration, plate are incubated at room temperature in the dark for 90 minutes. Reaction are stopped by vacuum filtration onto 0.3% polyethyleneimine soaked filter mats using Filtermate harvester. Scintilation cocktail is then melted onto microwave-dried filters on a hot plate and the radio activity is counted in Microbia counter.
Test [6] deals with T1, Alpha-1A adrenergic receptor (Homo sapiens) (UniProt P35348).
T1 sequence (whole entry): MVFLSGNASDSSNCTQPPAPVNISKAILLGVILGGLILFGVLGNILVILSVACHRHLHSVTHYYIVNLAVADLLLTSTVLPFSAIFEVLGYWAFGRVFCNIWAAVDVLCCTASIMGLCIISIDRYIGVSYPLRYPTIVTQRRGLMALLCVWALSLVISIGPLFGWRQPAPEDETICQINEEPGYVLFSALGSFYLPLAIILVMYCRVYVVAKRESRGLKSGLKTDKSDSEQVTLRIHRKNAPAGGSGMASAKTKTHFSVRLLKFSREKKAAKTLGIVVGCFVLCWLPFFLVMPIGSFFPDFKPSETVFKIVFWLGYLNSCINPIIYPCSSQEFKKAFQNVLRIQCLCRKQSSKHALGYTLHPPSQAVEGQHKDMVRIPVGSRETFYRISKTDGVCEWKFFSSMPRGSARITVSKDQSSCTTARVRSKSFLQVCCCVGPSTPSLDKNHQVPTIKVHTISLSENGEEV
Description: PDSP Primary Binding target: ADRA1A - Compounds are tested at 10 uM concentration, plate are incubated at room temperature in the dark for 90 minutes. Reaction are stopped by vacuum filtration onto 0.3% polyethyleneimine soaked filter mats using Filtermate harvester. Scintilation cocktail is then melted onto microwave-dried filters on a hot plate and the radio activity is counted in Microbia counter.

Test [7] deals with Sodium-dependent noradrenaline transporter (Homo sapiens) (UniProt P23975).
Description: PDSP Primary Binding target: SLC6A2 - Compounds are tested at 10 uM concentration, plate are incubated at room temperature in the dark for 90 minutes. Reaction are stopped by vacuum filtration onto 0.3% polyethyleneimine soaked filter mats using Filtermate harvester. Scintilation cocktail is then melted onto microwave-dried filters on a hot plate and the radio activity is counted in Microbia counter.
The target in test [8] is Beta-3 adrenergic receptor (Homo sapiens) (UniProt P13945).
Description: PDSP Primary Binding target: ADRB3 - Compounds are tested at 10 uM concentration, plate are incubated at room temperature in the dark for 90 minutes. Reaction are stopped by vacuum filtration onto 0.3% polyethyleneimine soaked filter mats using Filtermate harvester. Scintilation cocktail is then melted onto microwave-dried filters on a hot plate and the radio activity is counted in Microbia counter.
The target in test [9] is T2, Muscarinic acetylcholine receptor M1 (Homo sapiens) (UniProt P11229).
T2 sequence (whole entry): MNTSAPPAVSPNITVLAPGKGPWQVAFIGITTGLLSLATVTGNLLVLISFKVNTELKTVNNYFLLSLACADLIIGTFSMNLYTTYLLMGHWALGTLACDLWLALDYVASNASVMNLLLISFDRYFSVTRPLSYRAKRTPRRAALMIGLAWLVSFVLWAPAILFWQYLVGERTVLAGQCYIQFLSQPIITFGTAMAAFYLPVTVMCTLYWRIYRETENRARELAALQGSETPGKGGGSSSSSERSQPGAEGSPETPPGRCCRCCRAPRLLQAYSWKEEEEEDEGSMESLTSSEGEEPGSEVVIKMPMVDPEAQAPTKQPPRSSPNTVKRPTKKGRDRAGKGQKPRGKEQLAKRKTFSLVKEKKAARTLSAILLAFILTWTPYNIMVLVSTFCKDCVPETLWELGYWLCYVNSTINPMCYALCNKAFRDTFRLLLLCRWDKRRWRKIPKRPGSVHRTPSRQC
Description: PDSP Primary Binding target: CHRM1 - Compounds are tested at 10 uM concentration, plate are incubated at room temperature in the dark for 90 minutes. Reaction are stopped by vacuum filtration onto 0.3% polyethyleneimine soaked filter mats using Filtermate harvester. Scintilation cocktail is then melted onto microwave-dried filters on a hot plate and the radio activity is counted in Microbia counter.

Test [10] concerns the target Beta-1 adrenergic receptor (Homo sapiens) (UniProt P08588).
Description: PDSP Primary Binding target: ADRB1 - Compounds are tested at 10 uM concentration, plate are incubated at room temperature in the dark for 90 minutes. Reaction are stopped by vacuum filtration onto 0.3% polyethyleneimine soaked filter mats using Filtermate harvester. Scintilation cocktail is then melted onto microwave-dried filters on a hot plate and the radio activity is counted in Microbia counter.
The target of test [11] is Histamine H3 receptor (Homo sapiens) (UniProt Q9Y5N1).
Description: PDSP Primary Binding target: HRH3 - Compounds are tested at 10 uM concentration, plate are incubated at room temperature in the dark for 90 minutes. Reaction are stopped by vacuum filtration onto 0.3% polyethyleneimine soaked filter mats using Filtermate harvester. Scintilation cocktail is then melted onto microwave-dried filters on a hot plate and the radio activity is counted in Microbia counter.
The target in test [12] is Sodium-dependent dopamine transporter (Homo sapiens) (UniProt Q01959).
Description: PDSP Primary Binding target: SLC6A3 - Compounds are tested at 10 uM concentration, plate are incubated at room temperature in the dark for 90 minutes. Reaction are stopped by vacuum filtration onto 0.3% polyethyleneimine soaked filter mats using Filtermate harvester. Scintilation cocktail is then melted onto microwave-dried filters on a hot plate and the radio activity is counted in Microbia counter.
Test [13] deals with 5-hydroxytryptamine receptor 1D (Homo sapiens) (UniProt P28221).
Description: PDSP Primary Binding target: HTR1D - Compounds are tested at 10 uM concentration, plate are incubated at room temperature in the dark for 90 minutes. Reaction are stopped by vacuum filtration onto 0.3% polyethyleneimine soaked filter mats using Filtermate harvester. Scintilation cocktail is then melted onto microwave-dried filters on a hot plate and the radio activity is counted in Microbia counter.
In test [14] the target is T3, Muscarinic acetylcholine receptor M5 (Homo sapiens) (UniProt P08912).
T3 sequence (whole entry): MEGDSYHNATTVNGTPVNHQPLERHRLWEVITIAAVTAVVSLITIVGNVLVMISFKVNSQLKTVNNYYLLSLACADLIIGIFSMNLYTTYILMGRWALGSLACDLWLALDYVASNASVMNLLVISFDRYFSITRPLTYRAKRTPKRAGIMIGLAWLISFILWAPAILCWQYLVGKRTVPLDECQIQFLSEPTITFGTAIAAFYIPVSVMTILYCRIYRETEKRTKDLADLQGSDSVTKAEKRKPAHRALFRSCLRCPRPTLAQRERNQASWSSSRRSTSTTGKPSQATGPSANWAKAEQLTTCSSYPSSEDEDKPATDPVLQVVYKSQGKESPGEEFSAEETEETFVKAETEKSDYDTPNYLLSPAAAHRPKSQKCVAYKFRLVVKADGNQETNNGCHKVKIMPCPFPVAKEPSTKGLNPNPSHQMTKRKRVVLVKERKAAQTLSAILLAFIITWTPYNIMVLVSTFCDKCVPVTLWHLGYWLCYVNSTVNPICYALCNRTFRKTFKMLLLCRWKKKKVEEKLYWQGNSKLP
Description: PDSP Primary Binding target: CHRM5 - Compounds are tested at 10 uM concentration, plate are incubated at room temperature in the dark for 90 minutes. Reaction are stopped by vacuum filtration onto 0.3% polyethyleneimine soaked filter mats using Filtermate harvester. Scintilation cocktail is then melted onto microwave-dried filters on a hot plate and the radio activity is counted in Microbia counter.

Test [15] deals with 5-hydroxytryptamine receptor 1B (Homo sapiens) (UniProt P28222).
Description: PDSP Primary Binding target: HTR1B - Compounds are tested at 10 uM concentration, plate are incubated at room temperature in the dark for 90 minutes. Reaction are stopped by vacuum filtration onto 0.3% polyethyleneimine soaked filter mats using Filtermate harvester. Scintilation cocktail is then melted onto microwave-dried filters on a hot plate and the radio activity is counted in Microbia counter.
Test [16] has as its target D(2) dopamine receptor (Homo sapiens) (UniProt P14416).
Description: PDSP Primary Binding target: DRD2 - Compounds are tested at 10 uM concentration, plate are incubated at room temperature in the dark for 90 minutes. Reaction are stopped by vacuum filtration onto 0.3% polyethyleneimine soaked filter mats using Filtermate harvester. Scintilation cocktail is then melted onto microwave-dried filters on a hot plate and the radio activity is counted in Microbia counter.
The target in test [17] is T4, Muscarinic acetylcholine receptor M4 (Homo sapiens) (UniProt P08173).
T4 sequence (whole entry): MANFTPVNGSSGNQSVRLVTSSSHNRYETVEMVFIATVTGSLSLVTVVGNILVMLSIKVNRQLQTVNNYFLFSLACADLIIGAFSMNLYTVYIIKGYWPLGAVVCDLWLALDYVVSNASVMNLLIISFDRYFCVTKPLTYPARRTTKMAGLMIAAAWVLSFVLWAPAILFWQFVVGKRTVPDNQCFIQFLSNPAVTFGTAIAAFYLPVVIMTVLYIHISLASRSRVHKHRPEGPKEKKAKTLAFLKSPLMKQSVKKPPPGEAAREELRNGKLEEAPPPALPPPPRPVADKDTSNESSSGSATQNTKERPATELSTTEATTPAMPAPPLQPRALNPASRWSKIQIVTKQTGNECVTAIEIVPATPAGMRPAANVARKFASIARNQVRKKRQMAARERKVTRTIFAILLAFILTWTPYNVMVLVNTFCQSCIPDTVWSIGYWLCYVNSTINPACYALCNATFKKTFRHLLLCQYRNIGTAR
Description: PDSP Primary Binding target: CHRM4 - Compounds are tested at 10 uM concentration, plate are incubated at room temperature in the dark for 90 minutes. Reaction are stopped by vacuum filtration onto 0.3% polyethyleneimine soaked filter mats using Filtermate harvester. Scintilation cocktail is then melted onto microwave-dried filters on a hot plate and the radio activity is counted in Microbia counter.

Test [18] has as its target 5-hydroxytryptamine receptor 7 (Homo sapiens) (UniProt P34969).
Description: PDSP Primary Binding target: HTR7 - Compounds are tested at 10 uM concentration, plate are incubated at room temperature in the dark for 90 minutes. Reaction are stopped by vacuum filtration onto 0.3% polyethyleneimine soaked filter mats using Filtermate harvester. Scintilation cocktail is then melted onto microwave-dried filters on a hot plate and the radio activity is counted in Microbia counter.

Molecules are shown by their SMILES.

Beta-1 adrenergic receptor (Homo sapiens), sequence (P08588 whole entry, looked up): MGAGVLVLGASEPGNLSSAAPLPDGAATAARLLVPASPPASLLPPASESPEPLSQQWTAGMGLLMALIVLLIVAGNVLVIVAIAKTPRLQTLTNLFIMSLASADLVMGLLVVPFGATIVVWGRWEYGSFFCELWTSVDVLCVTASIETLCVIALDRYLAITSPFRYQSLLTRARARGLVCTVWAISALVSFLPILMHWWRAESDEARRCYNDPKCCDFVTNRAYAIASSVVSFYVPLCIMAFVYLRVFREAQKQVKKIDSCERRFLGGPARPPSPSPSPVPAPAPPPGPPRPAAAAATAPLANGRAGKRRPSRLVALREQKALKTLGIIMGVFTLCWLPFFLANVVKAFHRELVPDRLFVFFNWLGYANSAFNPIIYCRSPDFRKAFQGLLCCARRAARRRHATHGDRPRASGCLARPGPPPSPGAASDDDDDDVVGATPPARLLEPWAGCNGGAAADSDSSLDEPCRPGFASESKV
D(1A) dopamine receptor (Homo sapiens), sequence (P21728 whole entry): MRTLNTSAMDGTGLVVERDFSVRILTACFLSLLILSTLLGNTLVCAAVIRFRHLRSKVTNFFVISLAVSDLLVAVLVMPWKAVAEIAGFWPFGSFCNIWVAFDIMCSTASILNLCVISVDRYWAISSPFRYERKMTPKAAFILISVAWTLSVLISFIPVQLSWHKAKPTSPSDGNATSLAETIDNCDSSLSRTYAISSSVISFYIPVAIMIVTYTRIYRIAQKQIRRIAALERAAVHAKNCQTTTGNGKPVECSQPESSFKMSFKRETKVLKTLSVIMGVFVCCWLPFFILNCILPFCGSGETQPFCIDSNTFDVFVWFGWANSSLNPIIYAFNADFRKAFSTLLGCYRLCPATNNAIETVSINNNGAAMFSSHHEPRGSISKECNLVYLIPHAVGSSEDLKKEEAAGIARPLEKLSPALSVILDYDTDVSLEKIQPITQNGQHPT
Beta-3 adrenergic receptor (Homo sapiens), sequence (P13945 whole entry, looked up): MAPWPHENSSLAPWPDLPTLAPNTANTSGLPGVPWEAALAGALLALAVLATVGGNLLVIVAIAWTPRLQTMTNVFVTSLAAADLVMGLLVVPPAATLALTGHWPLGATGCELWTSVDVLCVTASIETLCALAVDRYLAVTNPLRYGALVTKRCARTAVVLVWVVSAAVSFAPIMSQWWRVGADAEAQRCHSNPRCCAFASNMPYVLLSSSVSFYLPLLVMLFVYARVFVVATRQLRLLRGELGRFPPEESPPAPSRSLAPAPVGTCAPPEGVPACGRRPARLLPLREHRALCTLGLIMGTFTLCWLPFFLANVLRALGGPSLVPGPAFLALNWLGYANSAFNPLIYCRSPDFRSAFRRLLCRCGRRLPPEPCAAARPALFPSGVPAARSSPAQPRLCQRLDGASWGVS
D(1B) dopamine receptor (Homo sapiens), sequence (P21918 whole entry): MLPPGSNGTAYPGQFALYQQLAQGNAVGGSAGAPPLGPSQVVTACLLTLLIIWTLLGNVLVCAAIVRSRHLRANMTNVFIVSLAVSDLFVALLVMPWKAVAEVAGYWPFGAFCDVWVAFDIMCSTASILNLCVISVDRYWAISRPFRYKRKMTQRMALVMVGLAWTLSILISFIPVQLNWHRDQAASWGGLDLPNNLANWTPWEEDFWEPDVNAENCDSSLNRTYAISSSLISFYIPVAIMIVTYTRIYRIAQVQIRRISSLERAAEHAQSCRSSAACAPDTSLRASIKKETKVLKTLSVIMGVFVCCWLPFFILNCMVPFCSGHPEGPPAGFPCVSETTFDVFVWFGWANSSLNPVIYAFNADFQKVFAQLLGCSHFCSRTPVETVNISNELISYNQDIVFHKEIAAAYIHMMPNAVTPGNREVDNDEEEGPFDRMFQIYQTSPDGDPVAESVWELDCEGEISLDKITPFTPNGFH
D(2) dopamine receptor (Homo sapiens), sequence (P14416 whole entry): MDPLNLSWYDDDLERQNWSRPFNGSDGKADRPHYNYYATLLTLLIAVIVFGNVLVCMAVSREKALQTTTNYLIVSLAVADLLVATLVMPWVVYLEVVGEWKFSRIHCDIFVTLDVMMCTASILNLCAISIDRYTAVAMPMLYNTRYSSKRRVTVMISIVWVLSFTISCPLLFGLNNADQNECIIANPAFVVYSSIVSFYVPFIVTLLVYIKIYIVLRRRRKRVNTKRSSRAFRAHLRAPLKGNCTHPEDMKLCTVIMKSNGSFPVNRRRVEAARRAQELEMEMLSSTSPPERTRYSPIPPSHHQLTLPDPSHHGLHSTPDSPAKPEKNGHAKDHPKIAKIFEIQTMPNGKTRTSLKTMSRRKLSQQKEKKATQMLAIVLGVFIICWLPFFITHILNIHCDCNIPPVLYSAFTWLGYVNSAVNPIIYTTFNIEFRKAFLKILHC
Histamine H3 receptor (Homo sapiens), sequence (Q9Y5N1 whole entry): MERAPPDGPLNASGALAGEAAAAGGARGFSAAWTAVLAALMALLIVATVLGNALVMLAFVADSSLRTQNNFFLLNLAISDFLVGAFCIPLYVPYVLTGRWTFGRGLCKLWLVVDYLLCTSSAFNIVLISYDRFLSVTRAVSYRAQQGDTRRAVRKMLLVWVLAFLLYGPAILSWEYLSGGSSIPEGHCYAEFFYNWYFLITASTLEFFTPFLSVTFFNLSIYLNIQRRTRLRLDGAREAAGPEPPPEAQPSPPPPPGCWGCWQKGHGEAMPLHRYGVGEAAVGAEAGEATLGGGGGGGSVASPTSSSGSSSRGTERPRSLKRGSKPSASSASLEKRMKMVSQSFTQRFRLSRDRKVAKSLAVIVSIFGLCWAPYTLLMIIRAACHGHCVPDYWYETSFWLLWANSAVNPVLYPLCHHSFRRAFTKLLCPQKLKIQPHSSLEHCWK
Sodium-dependent dopamine transporter (Homo sapiens), sequence (Q01959 whole entry): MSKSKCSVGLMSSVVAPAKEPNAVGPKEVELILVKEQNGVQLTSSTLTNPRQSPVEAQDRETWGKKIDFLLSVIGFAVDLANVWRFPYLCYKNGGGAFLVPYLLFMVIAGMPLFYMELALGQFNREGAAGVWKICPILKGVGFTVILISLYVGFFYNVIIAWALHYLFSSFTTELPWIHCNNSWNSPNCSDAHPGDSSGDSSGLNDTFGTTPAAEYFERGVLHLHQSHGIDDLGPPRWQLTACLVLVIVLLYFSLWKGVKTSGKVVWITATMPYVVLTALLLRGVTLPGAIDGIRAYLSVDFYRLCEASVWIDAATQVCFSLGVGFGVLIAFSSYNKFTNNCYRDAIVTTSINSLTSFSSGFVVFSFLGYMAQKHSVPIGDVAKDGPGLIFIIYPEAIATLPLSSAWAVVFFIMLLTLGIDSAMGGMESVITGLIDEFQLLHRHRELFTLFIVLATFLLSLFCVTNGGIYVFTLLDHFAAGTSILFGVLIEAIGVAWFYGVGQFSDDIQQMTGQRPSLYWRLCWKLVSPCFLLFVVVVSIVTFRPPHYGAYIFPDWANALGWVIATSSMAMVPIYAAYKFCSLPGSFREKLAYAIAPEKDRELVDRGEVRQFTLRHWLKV
Muscarinic acetylcholine receptor M3 (Homo sapiens), sequence (P20309 whole entry, looked up): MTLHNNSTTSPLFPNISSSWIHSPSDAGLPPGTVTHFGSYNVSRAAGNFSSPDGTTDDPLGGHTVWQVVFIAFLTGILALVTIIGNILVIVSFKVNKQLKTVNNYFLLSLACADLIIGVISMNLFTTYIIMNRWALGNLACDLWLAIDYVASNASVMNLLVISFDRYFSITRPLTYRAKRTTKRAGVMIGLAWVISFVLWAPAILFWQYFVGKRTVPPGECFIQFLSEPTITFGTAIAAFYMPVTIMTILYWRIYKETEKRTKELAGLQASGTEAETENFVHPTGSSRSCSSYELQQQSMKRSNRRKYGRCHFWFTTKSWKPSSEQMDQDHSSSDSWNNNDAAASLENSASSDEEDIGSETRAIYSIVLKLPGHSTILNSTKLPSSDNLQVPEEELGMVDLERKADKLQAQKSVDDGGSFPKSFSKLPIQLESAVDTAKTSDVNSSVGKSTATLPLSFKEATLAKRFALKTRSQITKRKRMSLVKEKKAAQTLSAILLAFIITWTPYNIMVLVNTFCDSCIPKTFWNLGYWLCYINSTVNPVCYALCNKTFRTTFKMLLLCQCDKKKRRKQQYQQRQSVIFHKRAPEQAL
Sigma non-opioid intracellular receptor 1 (Homo sapiens), sequence (Q99720 whole entry): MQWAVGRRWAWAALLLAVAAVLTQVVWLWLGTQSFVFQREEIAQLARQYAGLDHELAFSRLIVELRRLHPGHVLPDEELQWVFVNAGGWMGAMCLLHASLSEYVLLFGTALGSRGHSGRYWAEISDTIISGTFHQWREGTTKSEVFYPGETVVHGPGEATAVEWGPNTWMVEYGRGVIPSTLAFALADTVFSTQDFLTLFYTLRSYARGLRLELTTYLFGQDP
5-hydroxytryptamine receptor 1D (Homo sapiens), sequence (P28221 whole entry): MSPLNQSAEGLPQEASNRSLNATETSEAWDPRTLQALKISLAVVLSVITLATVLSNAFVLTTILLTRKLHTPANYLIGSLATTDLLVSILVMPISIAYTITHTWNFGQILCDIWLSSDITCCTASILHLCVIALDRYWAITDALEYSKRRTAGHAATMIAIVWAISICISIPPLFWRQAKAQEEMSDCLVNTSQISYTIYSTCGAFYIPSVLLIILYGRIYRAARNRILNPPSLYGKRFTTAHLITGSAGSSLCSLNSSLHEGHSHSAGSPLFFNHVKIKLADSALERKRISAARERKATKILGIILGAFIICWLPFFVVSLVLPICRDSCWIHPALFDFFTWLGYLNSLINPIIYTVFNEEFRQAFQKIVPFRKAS
5-hydroxytryptamine receptor 1B (Homo sapiens), sequence (P28222 whole entry): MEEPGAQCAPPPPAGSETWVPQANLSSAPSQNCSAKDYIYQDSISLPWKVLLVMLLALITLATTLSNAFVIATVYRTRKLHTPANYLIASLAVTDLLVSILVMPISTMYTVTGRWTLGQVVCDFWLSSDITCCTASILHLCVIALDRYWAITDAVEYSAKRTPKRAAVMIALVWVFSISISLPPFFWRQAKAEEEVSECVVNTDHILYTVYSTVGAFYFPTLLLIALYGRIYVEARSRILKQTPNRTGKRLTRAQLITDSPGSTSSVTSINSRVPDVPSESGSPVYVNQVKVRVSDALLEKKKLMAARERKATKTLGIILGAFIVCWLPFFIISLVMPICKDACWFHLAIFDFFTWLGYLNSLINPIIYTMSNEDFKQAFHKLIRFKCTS

With `O=C(O)C1CN(Cc2ccc(-c3nc4cc(Cc5ccccc5F)ccc4s3)c(F)c2)C1`, the inhibition in test [1] was -1.67%; in test [2], 1.06%; in test [3], 5.12%; in test [4] it was -0.27%; in test [5] it was 2.63%; in test [6], -8.12%. For the same compound, the inhibition in test [7] was 20.8%; in test [8], -2.08%; in [9], 0.63%; in test [10], 22.9%; in test [11] it was 1.61%; in test [12], 30.2%.
As for `N#Cc1ccc(NC(=O)Nc2ccccc2Br)c2nn[nH]c12`, the inhibition in [13] is 1.14%; in [2], 17.7%; in test [14], 6.48%; in test [3], 9.64%; in [4] it was -7.18%; in [15], 1.05%. Further, the inhibition was 2.97% in test [5]; 35.6% in test [7]; -0.4% in [16]; 75% in test [8]; 26.6% in test [10]; 33.1% in test [17]. For the same compound, the results for the inhibition in test [11] and in [12] were 3.06% and 59.8%, respectively.
On to `FC(F)(F)c1cccc(-c2noc(-c3cc(-c4ccccc4)c(C(F)(F)F)s3)n2)c1`, for which the inhibition in [1] is -5.11%; in test [13] it was -9.1%; in test [2], 16.3%; in test [14], -4.18%; in [3], -0.34%; in test [15], 1.92%. The inhibition in test [16] was 24.7%; in [8], 23.6%; in test [18], 7.06%; in [9], 21.5%; in test [10] it was -3.82%; in test [17], -0.35%. The inhibition in [12] was 17.8%.
`FC(F)(F)c1c(N2CCC(c3ccccc3)CC2)ccn2c(CC3CC3)nnc12`: the inhibition in test [1] is -8.34%; in test [2] it was 12.3%; in test [14] it was -6.28%; in test [3], 64.7%; in test [4], -0.45%; in test [15] it was -8.94%. The inhibition in test [6] was -6.36%; in test [7], 31.6%; in test [16] it was 26%; in test [8] it was 4.3%; in [9] it was -1.64%; in [10] it was 22.1%. In addition, the inhibition in [12] was 54.2%.
For the compound `c1cc(CN2CCCNCCNCCCNCC2)ccc1CN1CCCNCCNCCCNCC1`, the inhibition was -4.94% in test [1]; 1.3% in test [13]; 0.23% in test [2]; 1.58% in test [14]; 15.3% in [3]; -5.65% in test [4]. The inhibition in test [15] was 4.06%; in [6], -9.28%; in test [7], 33.4%; in test [16] it was -1.67%; in test [8], 34.5%; in [9] it was 62.3%. The inhibition in test [10] was 34.9%; in test [17], 41.7%; in test [11] it was 80.5%; in [12], 53.6%.
On to `O=C(O)C1CN(Cc2ccc(OCc3ccc(Cl)c(Cl)c3)cc2)C1`, for which the inhibition was -5.25% in test [1]; 29.6% in test [2]; -2.07% in test [14]; 76.9% in [3]; -5.98% in test [4]; -0.54% in test [6]. The inhibition in test [8] was -2.67%; in test [18] it was -9.54%; in test [9], 2.35%; in test [10], -7.03%; in test [17] it was 29.6%; in test [11], -4.42%. Further, in [12], the inhibition is 31.9%.
As for `N#Cc1c[nH]c2c(C(=O)N3CCN(CCc4ccc(F)cc4)CC3)cccc12`, the inhibition is 61.7% in [13]; 4.27% in test [2]; -9.78% in [14]; 87.6% in test [3]; 8.62% in test [4]; -5.18% in test [15]. In addition, the inhibition is 27.9% in test [5]; -8.21% in test [6]; 71.6% in [7]; 7.47% in test [16]; 22.4% in test [8]; 50.6% in [18]. Also, the inhibition was -2.04% in [9], 35.6% in test [10], -0.43% in test [11] and 36.2% in test [12].
For the compound `N[C@H](C(=O)O)c1ccc(C(=O)O)c(C(=O)O)c1`, the inhibition was 4.31% in test [1]; 19.2% in test [13]; -1.13% in [2]; 14.1% in test [14]; 6.26% in test [3]; -2.1% in [15]. The inhibition in test [7] is 54.5%; in test [16] it was 13.7%; in [8], 18.2%; in test [10], -5.64%; in test [11], 11.6%; in [12], 44%.
On to `CO[C@@H]1COCC[C@@H]1N[C@@H]1CC[C@@](C(=O)N2CCc3ncc(C(F)(F)F)cc3C2)(C(C)C)C1`, for which the inhibition in test [1] was 6.08%; in test [2], 14.9%; in [14] it was -4.29%; in [3] it was 81.8%; in test [4] it was 0.19%; in test [15], -6.23%. The inhibition in test [6] is -0.61%; in test [16], 16.4%; in [8], 47.5%; in test [9], -6.06%; in [10], 28.2%; in test [11], 4.46%. Also, in test [12], the inhibition was 14.2%.

A word on the inhibition: it is the relative decrease from the control value, in per cent.
